For three molecules, CC50 results are on record in ChEMBL document CHEMBL1127211, “Biselectrostatic interaction with DNA as potential anti-turmor agents: novel 2,11-diamino-5,8-dithiaundecane derivatives” (1993).

Structures are written as SMILES. Converted amounts (≈) assume the structure as drawn.

Common to all, as to format: functional
Settings in all cases: Homo sapiens, read-out: LD50 (the source's name)

In experiment [1] the test system is HeLa. Briefly: Tested for its in vitro cytotoxicity against Hela cells.
Experiment [2] in a line: Tested for its in vitro cytotoxicity against KB cells.
Experiment [3] concerns HEp-2. Briefly: Tested for its in vitro cytotoxicity against HEP-2 cells.
Experiment [4] relates to COLO 205. Briefly: Tested for its in vitro cytotoxicity against COLO-205 cells.

As for `NCCCSCC(COc1cccc(-c2ccccc2)c1)SCCCN` (stereo unspecified), the CC50 amounted to 1.2 mg/L (≈ 3.07 µM) in experiment [1], 1.55 mg/L (≈ 3.97 µM) in experiment [2], 1.36 mg/L (≈ 3.48 µM) in experiment [3] and 1.41 mg/L (≈ 3.61 µM) in experiment [4].
Take `NCCCSCC(COc1ccc(NC(=O)c2cc(-c3ccccc3)nc3ccccc23)cc1)SCCCN` (stereo unspecified): the results for the CC50 in experiment [1], in experiment [3] and in experiment [4] were 6.18 mg/L (≈ 11 µM), 1.92 mg/L (≈ 3.42 µM) and 5.2 mg/L (≈ 9.27 µM), respectively.
Take `NCCCSCC(COc1ccc(-c2ccccc2)cc1)SCCCN` (stereo unspecified): the CC50 was 0.68 mg/L (≈ 1.74 µM) in experiment [1], 0.92 mg/L (≈ 2.36 µM) in experiment [2], 1.45 mg/L (≈ 3.71 µM) in experiment [3] and 1.05 mg/L (≈ 2.69 µM) in experiment [4].
